Like-named read-outs stand apart in the source and are kept apart here.
Key:
activated HSA = activated HSA (Homo sapiens, UniProt P02768)
Procedure: Such binding degree to albumin can be simply qualitatively or quantitatively measured by an in vitro analysis using a simple HPLC.
Human serum albumin (HSA, 1 mM) solution was prepared by dissolving 66.5 mg of the activated HSA prepared in Example 3 in PBS buffer solution (pH 7.2, 1 ml). Stock solutions (1 mM) of bioactive substance Compound 15 (1.8 mg/ml) and Leuprolide (1.2 mg/ml) were respectively prepared by the same method.
The stock solutions prepared in the above method were diluted with PBS buffer so that they had the compositions shown in Table 2 below thereby to prepare sample solutions (100 μl) for determination. Then, each reaction mixture was mixed and slowly shaken in an incubator for 30 min while the temperature condition of 37° C. was kept. After incubation, methanol (150 μl) was added to each sample vial, which was then voltexed for 10 min, to precipitate HSA. The precipitated albumin was spun down by centrifugation (12,000 rpm, 10° C., 10 min.) and the supernatants (50 μl) were taken and analyzed using HPLC under the same conditions.
The degree of conjugation was examined with increasing the concentration of the bioactive substance compounds at the fixed concentration of albumin.

ICR female mice = assay: Blood glucose reducing activity through intraperitoneal glucose tolerance test (IPGTT); format: in vivo; details: 10 nmol
Procedure: Long-acting of the blood glucose reducing effect was tested in this example to determine long-acting of the blood glucose reducing activity of Compound 35 of the present invention. As control samples for determining blood glucose reducing activity and long-acting of the activity, native Exendin-4 was used, and the activity of each peptide sample was measured by intraperitoneal glucose tolerance test (IPGTT).
ICR female mice (6 weeks old, DaehanBioLink, Korea) were employed as test animals, after being adapted in lab for 7 days. Before the test, 8 mice were picked out of each group and blood was collected from tail to measure the glucose concentration in blood using glucometer (Accucheck Sensor, Roche), and then, starved for 15 to 18 hours. […] At each determined time, blood was corrected from caudal vein and the level of glucose therein was measured with glucometer. The experiments for the determination of blood glucose reducing activity and the long-acting of the activity are summarized in Table 5.
The animal test results with respect to the long-acting of blood glucose reducing effect, when Compound 35 of the present invention, and […], were measured through IPGTT, and shown in FIGS. 1 and 2. […]

Sequence of activated HSA (P02768 25-609): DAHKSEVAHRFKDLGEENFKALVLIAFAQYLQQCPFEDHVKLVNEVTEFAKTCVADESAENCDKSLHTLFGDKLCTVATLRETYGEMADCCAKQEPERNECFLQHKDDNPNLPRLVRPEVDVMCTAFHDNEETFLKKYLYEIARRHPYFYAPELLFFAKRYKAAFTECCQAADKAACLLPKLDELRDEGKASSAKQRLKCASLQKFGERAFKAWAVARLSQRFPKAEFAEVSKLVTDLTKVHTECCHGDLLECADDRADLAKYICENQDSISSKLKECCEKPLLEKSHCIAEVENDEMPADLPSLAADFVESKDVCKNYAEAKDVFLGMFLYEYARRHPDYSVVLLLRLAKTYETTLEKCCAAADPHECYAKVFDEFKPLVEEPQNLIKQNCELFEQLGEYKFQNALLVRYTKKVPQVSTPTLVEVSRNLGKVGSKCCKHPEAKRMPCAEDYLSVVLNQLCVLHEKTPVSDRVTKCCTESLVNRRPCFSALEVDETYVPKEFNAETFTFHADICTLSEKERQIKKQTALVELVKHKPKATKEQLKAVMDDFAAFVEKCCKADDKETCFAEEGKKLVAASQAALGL

Substance	PA 20.6 min (peak area) (activated HSA; Compound 15/albumin 5/50 (μl of 1 mM stocks), PBS, 37° C., 30 min, supernatant HPLC)	PA 20.6 min/4.4M (activated HSA; Compound 15/albumin 5/50, relative to Compound 15 only)	PA 20.6 min/4.4M (activated HSA; Compound 15/albumin 10/0, Compound 15 only)	PA 20.6 min (peak area) (activated HSA; Compound 15/albumin 10/0, Compound 15 only, M: million)	PA 20.6 min (peak area) (activated HSA; Compound 15/albumin 10/50 (μl of 1 mM stocks), PBS, 37° C., 30 min, supernatant HPLC)	PA 20.6 min/4.4M (activated HSA; Compound 15/albumin 10/50, relative to Compound 15 only)	PA 20.6 min (peak area) (activated HSA; Compound 15/albumin 20/50 (μl of 1 mM stocks), PBS, 37° C., 30 min, supernatant HPLC, M: million)	PA 20.6 min/4.4M (activated HSA; Compound 15/albumin 20/50, relative to Compound 15 only)	PA 20.6 min (peak area) (activated HSA; Compound 15/albumin 40/50 (μl of 1 mM stocks), PBS, 37° C., 30 min, supernatant HPLC, M: million)	PA 20.6 min/4.4M (activated HSA; Compound 15/albumin 40/50, relative to Compound 15 only)	PA 20.6 min (peak area) (activated HSA; Compound 15/albumin 50/40 (μl of 1 mM stocks), PBS, 37° C., 30 min, supernatant HPLC, M: million)	PA 20.6 min/4.4M (activated HSA; Compound 15/albumin 50/40, relative to Compound 15 only)	PA 20.6 min (peak area) (activated HSA; Compound 15/albumin 50/50 (μl of 1 mM stocks), PBS, 37° C., 30 min, supernatant HPLC, M: million)	PA 20.6 min/4.4M (activated HSA; Compound 15/albumin 50/50, relative to Compound 15 only)	binding of Compound 15 to albumin (activated HSA; binding test of albumin and Compound 15)	blood glucose reducing curve in IPGTT versus saline control (ICR female mice; subcutaneous once 10 hours before intraperitoneal glucose (2 g/kg))	blood glucose reducing curve in IPGTT versus saline control (ICR female mice; subcutaneous once 24 hours before intraperitoneal glucose (2 g/kg))
Leuprolide-GSG-Lys-[ε-AEEA-CO—(CH2)2—SH]—NH2.2TFA [Compound 15]	0	0	1.0	4.4M	0	0	1.3M	0.3	9.8M	2.2	17.9M	4.0	14.7M	3.3	bound	–	–
Exendin-4	–	–	–	–	–	–	–	–	–	–	–	–	–	–	–	no significant difference	no significant difference

From patent US20100021480A1, “BIOACTIVE SUBSTANCE-BLOOD PROTEIN CONJUGATE AND STABILIZATION OF A BIOACTIVE SUBSTANCE USING THE SAME” (priority 2005, published 2010)
